According to patent US20220324835A1 (Nurix Therapeutics, Inc., priority 2018, published 2022):

Tests used:
[1] = molecular target: T1, Cbl-b (Homo sapiens, UniProt Q13191); test: Cbl-b inhibition assay (Cbl-b activity assay, FRET, Biological Example 1; 100 mM NaCl, 60 nM Src kinase); assay type: biochemical; conditions: upper bound stated in text lists; read-out: IC50 values in the Cbl-b inhibition assay of Biological Example 1
Outline: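 Inhibitor activity is measured as reduced terbium-to-fluorescein FRET between streptavidin-terbium on biotinylated Cbl-b and Bodipy-fluorescein ubiquitin carried by an irreversible UbcH5B-Ub conjugate, binding of which depends on Src phosphorylation of Cbl-b.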

[2] = test system: T-cell; test: IL-2 secretion from T-cells co-stimulated with anti-CD3 and anti-CD28 antibody (Biological Example 2); assay type: cell-based, human; conditions: Homo sapiens, T-cell, primary human total T-cells, baseline = anti-CD3/anti-CD28 stimulated cells without inhibitor, read-out: IL-2 secretion, Anti-CD3/Anti-CD28 stimulation, fold change over baseline; for fold induction at 0.3 µM: 0.3 μM compound; for fold induction at 1 µM: 1 μM compound; for fold induction at 4 µM: 4 μM compound
Outline: (§1)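 T-cells were stimulated with anti-CD3 antibody alone or with anti-CD28 antibody, in the presence or absence of Cbl-b inhibitor. IL-2 secretion or CD25 surface staining was measured, and values expressed as fold over the uninhibited baseline […].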

[3] = test system: T-cell; test: CD25 cell surface staining on T-cells co-stimulated with anti-CD3 and anti-CD28 antibody (Biological Example 2); assay type: cell-based, human; conditions: Homo sapiens, T-cell, primary human total T-cells, baseline = anti-CD3/anti-CD28 stimulated cells without inhibitor, read-out: CD25 staining, Anti-CD3/Anti-CD28 stimulation, fold change over baseline; for fold induction at 0.3 µM: 0.3 μM compound; for fold induction at 1 µM: 1 μM compound; for fold induction at 4 µM: 4 μM compound
Outline: as §1

[4] = molecular target: T1, Cbl-b; test: Cbl-b activity assay (Cbl-b inhibition assay), TR-FRET of Cbl-b interaction with UbcH5B-Ub; assay type: biochemical; conditions: assay buffer with 100 mM NaCl, 60 nM Src kinase; read-out: Cbl-b activity IC50
Outline: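 UbcH5B (C85K) conjugated to N-terminally Bodipy-Fluorescein-labeled ubiquitin served as the fluorescent partner. After compound preincubation, Src kinase (60 nM) with 1 mM ATP and 5 mM MgCl2 (final) was added for 1.5 h, followed by a further 1 h incubation. Some values were obtained with 50 mM NaCl and 30 nM Src.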

[5] = test system: T-cell; test: IL-2 secretion from T-cells stimulated with anti-CD3 antibody alone (Biological Example 2); assay type: cell-based; conditions: primary human total T-cells, read-out: IL-2 secretion, Anti-CD3 stimulation, fold change over baseline; for fold induction at 1 µM: 1 μM compound; for fold induction at 8 µM: 8 μM compound
[6] = test system: T-cell; test: CD25 cell surface staining on T-cells stimulated with anti-CD3 antibody alone (Biological Example 2); assay type: cell-based; conditions: primary human total T-cells, baseline = anti-CD3/anti-CD28 stimulated cells without inhibitor, read-out: CD25 staining, Anti-CD3 stimulation, fold change over baseline; for fold induction at 1 µM: 1 μM compound; for fold induction at 8 µM: 8 μM compound

T1 sequence (Q13191 36-427): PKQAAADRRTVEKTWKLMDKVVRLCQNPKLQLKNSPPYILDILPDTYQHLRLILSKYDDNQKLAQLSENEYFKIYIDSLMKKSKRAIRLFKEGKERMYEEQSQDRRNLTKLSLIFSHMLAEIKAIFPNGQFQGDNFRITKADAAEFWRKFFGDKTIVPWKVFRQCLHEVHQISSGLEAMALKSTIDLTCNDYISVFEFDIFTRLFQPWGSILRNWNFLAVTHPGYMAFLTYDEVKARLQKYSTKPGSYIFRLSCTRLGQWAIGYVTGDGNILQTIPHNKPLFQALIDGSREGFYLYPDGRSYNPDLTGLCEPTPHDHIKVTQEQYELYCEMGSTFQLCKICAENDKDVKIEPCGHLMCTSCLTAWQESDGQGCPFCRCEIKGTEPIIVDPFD

Compound | IC50 [1] [nM] | fold induction at 0.3 µM [2] | fold induction at 1 µM [2] | fold induction at 0.3 µM [3] | fold induction at 1 µM [3] | IC50 [4] [nM] | fold induction at 1 µM [5] | fold induction at 1 µM [6] | fold induction at 4 µM [2] | fold induction at 4 µM [3] | fold induction at 8 µM [5] | fold induction at 8 µM [6]
Cn1cnnc1CC1(c2cccc(N3Cc4c(cc(CN5CC[C@H]6C[C@H]65)cc4C(F)(F)F)C3=O)c2)COC1 (single isomer, unassigned) [Compound 486a] | ≤ 100 | > 7.5 | > 7.5 | 1.51 to 1.75 | 1.51 to 1.75 | < 100 | > 0.201 | > 1 |  |  |  | 
Cn1cnnc1CC1(c2cccc(N3Cc4c(cc(CN5CC[C@@H]6C[C@@H]65)cc4C(F)(F)F)C3=O)c2)COC1 (single isomer, unassigned) [Compound 486b] | ≤ 100 | > 7.5 | > 7.5 | 1.51 to 1.75 | 1.51 to 1.75 | < 100 | > 0.201 | > 1 |  |  |  | 
C[C@H](c1cc2c(c(C(F)(F)F)c1)CN(c1cccc(C3([C@H](F)c4nncn4C)COC3)c1)C2=O)N1CCC2(CC2)C1 (single isomer, unassigned) [Compound 516] | ≤ 100 | > 7.5 | > 7.5 | > 1.76 | > 1.76 | < 100 | > 0.201 | > 1 |  |  |  | 
Cn1cnnc1C[C@@]1(c2cccc(N3Cc4c(cc(CN5CCC6(CC6)C5)cc4C(F)(F)F)C3=O)c2)CCOC1 (single isomer, unassigned) [Compound 517a] | ≤ 100 | 2.51 to 5 | > 7.5 | 1.01 to 1.3 | 1.01 to 1.3 | < 100 | 0.101 to 0.15 | 0.801 to 1 |  |  |  | 
Cn1cnnc1C[C@]1(c2cccc(N3Cc4c(cc(CN5CCC6(CC6)C5)cc4C(F)(F)F)C3=O)c2)CCOC1 (single isomer, unassigned) [Compound 517b] | ≤ 100 | > 7.5 | > 7.5 | 1.01 to 1.3 | 1.01 to 1.3 | < 100 | > 0.201 | > 1 |  |  |  | 
Cc1cc(C(=O)Nc2cccc([C@]3(Cc4nncn4C)CCOC3)c2)nc(C2CC2)n1 (single isomer, unassigned) [Compound 534a] | ≤ 300 | 1.01 to 2.5 | 2.51 to 5 | 1.01 to 1.3 | 1.01 to 1.3 | 100 to 300 | 0.051 to 0.1 | 0.601 to 0.8 |  |  |  | 
Cc1cc(C(=O)Nc2cccc([C@@]3(Cc4nncn4C)CCOC3)c2)nc(C2CC2)n1 (single isomer, unassigned) [Compound 534b] | ≤ 100 | 2.51 to 5 | 2.51 to 5 | 1.01 to 1.3 | 1.01 to 1.3 | < 100 | 0.101 to 0.15 | 0.801 to 1 |  |  |  | 
Cn1cnnc1[C@H](F)[C@@](C)(F)c1cccc(N2Cc3c(cc(C4CC4)cc3C(F)(F)F)C2=O)c1 (stereo in doubt) [Compound 483, 6-cyclopropyl-2-[3-[(1S,2S)-1,2-difluoro-1-(4-methyl-4H-1,2,4-triazol-3-yl)propan-2-yl]phenyl]-4-(trifluoromethyl)-2,3-dihydro-1H-isoindol-1-one] | ≤ 300 | < 1 | 1.01 to 2.5 | 1.01 to 1.3 | 1.01 to 1.3 | 100 to 300 | 0.051 to 0.1 | 0.601 to 0.8 | 1.01 to 2.5 | 1.01 to 1.3 | 0.051 to 0.1 | 0.801 to 1
C[C@H](c1cc2c(c(C(F)(F)F)c1)CN(c1cccc(C3([C@@H](F)c4nncn4C)COC3)c1)C2=O)N1CCC2(CC2)C1 (stereo in doubt) [Compound 515, 6-[(1R)-1-{5-azaspiro[2.4]heptan-5-yl}ethyl]-2-(3-{3-[(R)-fluoro(4-methyl-1,2,4-triazol-3-yl)methyl]oxetan-3-yl}phenyl)-4-(trifluoromethyl)-3H-isoindol-1-one] | ≤ 100 | > 7.5 | > 7.5 | > 1.76 | > 1.76 | < 100 | > 0.201 | > 1 |  |  |  | 
C[C@H](Cc1nncn1C)c1cc(N[C@@H](C)CO)nc(N2Cc3c(cccc3C(F)(F)F)C2=O)c1 [Compound 365, 2-(6-((S)-1-hydroxypropan-2-ylamino)-4-((R)-1-(4-methyl-4H-1,2,4-triazol-3-yl)propan-2-yl)pyridin-2-yl)-4-(trifluoromethyl)isoindolin-1-one] | ≤ 300 | 1.01 to 2.5 | 1.01 to 2.5 | 1.01 to 1.3 | 1.01 to 1.3 | 100 to 300 | 0.051 to 0.1 | 0.601 to 0.8 | 2.51 to 5 | 1.01 to 1.3 | 0.151 to 0.2 | > 1
C[C@H](Cc1nncn1C)c1cccc(N2Cc3c(cc([C@@H]4CCCNC4)cc3C(F)(F)F)C2=O)c1 [Compound 382, 2-(3-((R)-1-(4-methyl-4H-1,2,4-triazol-3-yl)propan-2-yl)phenyl)-6-((S)-piperidin-3-yl)-4-(trifluoromethyl)isoindolin-1-one] | ≤ 300 | 2.51 to 5 | 5 to 7.5 | 1.01 to 1.3 | 1.31 to 1.5 | 100 to 300 | 0.101 to 0.15 | 0.601 to 0.8 | 5 to 7.5 | 1.51 to 1.75 | > 0.201 | > 1
CN1CC2CCC1CN2c1cc2c(c(C(F)(F)F)c1)CN(c1cccc(C3(Cc4nncn4C)COC3)c1)C2=O (stereo not shown) [Compound 387, 2-(3-(3-((4-Methyl-4H-1,2,4-triazol-3-yl)methyl)oxetan-3-yl)phenyl)-6-(5-methyl-2,5-diazabicyclo[2.2.2]octan-2-yl)-4-(trifluoromethyl)isoindolin-1-one] | ≤ 100 | 2.51 to 5 | 5 to 7.5 | 1.01 to 1.3 | 1.31 to 1.5 | < 100 | > 0.201 | 0.801 to 1 |  |  |  | 
C[C@H]1CN(C)CCN1c1cc2c(c(C(F)(F)F)c1)CN(c1cccc(C3(Cc4nncn4C)COC3)c1)C2=O [Compound 389, (S)-6-(2,4-Dimethylpiperazin-1-yl)-2-(3-(3-((4-methyl-4H-1,2,4-triazol-3-yl)methyl)oxetan-3-yl)phenyl)-4-(trifluoromethyl)isoindolin-1-one] | ≤ 100 | 5 to 7.5 | > 7.5 | 1.01 to 1.3 | 1.31 to 1.5 | < 100 | > 0.201 | > 1 |  |  |  | 
C[C@@H]1CN(C)CCN1c1cc2c(c(C(F)(F)F)c1)CN(c1cccc(C3(Cc4nncn4C)COC3)c1)C2=O [Compound 390, (R)-6-(2,4-Dimethylpiperazin-1-yl)-2-(3-(3-((4-methyl-4H-1,2,4-triazol-3-yl)methyl)oxetan-3-yl)phenyl)-4-(trifluoromethyl)isoindolin-1-one] | ≤ 100 | 2.51 to 5 | > 7.5 | 1.01 to 1.3 | 1.31 to 1.5 | < 100 | 0.151 to 0.2 | > 1 |  |  |  | 
